The test system of assay [1] is preclinical models and glaucoma patients. Further details: method as in PMID 25488946, PMID 28234563, PMID 21396362. The settings on record: cited from earlier work.
For assay [2], the system named is retinal ganglion cells (RGCs) in retinal ischemia–reperfusion injury rats. Briefly: Retinal ischemia–reperfusion injury model in rats (HE staining, Brn-3a immunofluorescence). The class given is in vivo, rat. The settings on record: Memantine 10 mg/kg tail vein, vs Model group. Here is the method:
Male Sprague Dawley rats were anesthetized with pentobarbital sodium (30 mg/kg, i.p.). Local anesthesia was administered to the corneas using tetracaine hydrochloride, followed by pupil dilation with tropicamide. A 30-gauge infusion needle was inserted into the anterior chamber of the eye and connected to a normal saline reservoir until the iris turned white. Retinal ischemia was maintained for 1 h at IOP of 110 mmHg. Upon careful withdrawal of the needle, IOP returned to normal, thereby inducing retinal ischemia–reperfusion injury. MN-08 (12 mg/kg) and Memantine (10 mg/kg) were administered via tail vein injection at 3 and 6 h post-surgery and continued twice daily for the subsequent two days. […]
Rats were euthanized by deep anesthetization with pentobarbital sodium (100 mg/kg, i.p.), and their eyes were enucleated for histology analysis. […] Ganglion cell complex (GCC) thickness and the RGCs numbers (retinal ganglion cell layer) were measured and analyzed with ImageJ software.
Eyes of sacrificed rats were rapidly removed; the cornea was cut along the corneoscleral rim after rinsing with PBS under the microscope. […] RGCs were observed using a fluorescence microscope (Olympus, Tokyo, Japan). The number of Brn-3a positive cells was counted manually in five randomly selected fields of view for each region of the whole-mount retina (including the center, mid-periphery, and periphery).

Assay [3] deals with human trabecular meshwork cells (HTMCs). Briefly: cGMP ELISA assay in HTMCs. The class given is cell-based. As to conditions: 30 min. How it is done:
Primary human trabecular meshwork cells (HTMCs) were isolated from the juxtacanalicular and corneoscleral regions of the human eye from ScienCell Research Laboratories (ScienCell, Carlsbad, CA). HTMCs were maintained in a complete medium consisting of DMEM enriched with 10% fetal bovine serum (FBS) and antibiotics (100 U/ml penicillin and 100 μg/ml streptomycin). Cells were cultured in a humidified incubator containing 5% CO2 at 37 °C. Experiments are conducted using HTMCs between the 5th and 8th passages to avoid cellular senescence. All reagents were obtained from Gibco (San Diego, CA, USA).
HTMCs were seeded at a density of 2 × 10^5 cells per well in 6-well plates. When reaching 80% confluency, the cells were subsequently incubated overnight in low-serum medium (DMEM supplemented with 0.5% FBS). […] After incubating, cells were harvested and lysed, and the levels of cGMP were detected by an ELISA kit (Abcam Corporation, Cambridge, UK). The procedure was conducted following the instructions provided by the manufacturer.
(In general: In an ELISA, binding on a coated surface is turned into a signal by an enzyme label.)

In a further assay the test system is glaucoma patients. The settings on record: cited from earlier work.
Assay [4] has as its system carbomer-induced glaucoma rabbit model. The assay can be described thus: Carbomer-induced experimental glaucoma model in rabbits (IOP). The class given is in vivo. As to conditions: latanoprost 0.005% single topical instillation; 0-360 min. How it is done: The methods were performed as previously described. New Zealand rabbits were anesthetized using an auricular vein injection of 60 mg/kg pentobarbital sodium. Local anesthesia of the corneas was achieved using tetracaine hydrochloride, followed by pupil dilation with tropicamide. An experimental glaucoma model was established by bilaterally injecting 0.25% carbomer (0.1 mL) into the anterior eye chamber of the rabbits. On the fifth day post-carbomer injection, stable high IOP was induced in the rabbits. MN-08 (0.5%, 0.2%, 0.1%, and 0.02%) or latanoprost (0.005%) was administered with a single topical instillation. IOP was measured continuously at 0, 30, 60, 120, 240, and 360 min following instillation with MN-08 or latanoprost (with 5 consecutive measurements being averaged to obtain a single value). At the last IOP measurement, the rabbits were euthanized under sodium pentobarbital anesthesia (100 mg/kg, i.v).

On to `O=C(CCC/C=C\C[C@@H]1[C@@H](CC[C@@H](O)CCc2ccccc2)[C@H](O)C[C@@H]1O)OCCCCO[N+](=O)[O-]` [Latanoprostene bunod (LBN), Latanoprostene bunod], for which the “reduction in IOP compared to latanoprost” value in assay [1] is reported as “great reduction”.

Regarding `CC12CC3CC(C)(C1)CC(N)(C3)C2` [Memantine], in assay [2] (3 and 6 h post-surgery then twice daily for two days), the “degree of retinal damage (HE staining)” value is reported as “reduced”. Also, in assay [2], the “survival of RGCs (Brn-3a positive cells)” value was “significantly increased”. In addition, the cGMP levels entry in assay [3] (memantine 10 μM) is “neither latanoprost (0.1 μM) nor memantine (10 μM) had any statistically significant effects”. The glaucoma progression result with glaucoma patients (clinical trials) is “failed to significantly delay”. Further, the “effect in protecting visual function” value in the assay on glaucoma patients (phase 3 clinical trial) is “no significant effect”.

Consider `CC(C)OC(=O)CCC/C=C\C[C@@H]1[C@@H](CC[C@@H](O)CCc2ccccc2)[C@H](O)C[C@@H]1O` [latanoprost], for which, in assay [4], the “carbomer-induced IOP elevation (change from baseline)” value is listed as “reduced”. In assay [3] (latanoprost 0.1 μM), the cGMP levels result was “neither latanoprost (0.1 μM) nor memantine (10 μM) had any statistically significant effects”.

Values taken from article PMC12229680, “Neuroprotective and intraocular pressure lowering effects of dual-functional memantine nitrate MN-08 on the experimental models of glaucoma” (Scientific Reports, 2025).
